Values after ≈ are worked out from the molar mass of the structure shown. Read-outs that look alike come from different tables or passages of the source.

Assay [1] deals with VZV. In words: VZV plaque reduction assay in human foreskin fibroblast cells. It is filed as cell-based, varicella zoster virus. The settings on record: Table II. The essentials:
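VZV at 20-30 plaques/well adsorbed 1 h onto HFF monolayers, then 0.5% agarose overlay holding drug at final 100 down to 0.03 μg/mL (1:5 steps), duplicates. Incubation 10 days, extra MEM/agarose overlay on days 3 and 6; neutral red staining, plaques counted.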
(In general: Plaques are areas of infected cells; plaque reduction assays count them against a control.)

Assay [2] deals with EBV. In words: EBV assay: superinfection of Raji or Daudi cells with P3HR-1, immunofluorescence for EA and VCA. It is filed as cell-based, Epstein-Barr virus. The essentials:
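Raji cells (Burkitt's lymphoma, 60 EBV genomes/cell) or Daudi cells were superinfected with P3HR-1 EBV, and drugs were added after 45 min adsorption at 37 °C and washing. After 48 h, smears were stained with monoclonal antibodies to EA components and VCA plus fluorescein anti-mouse Ig. Fluorescence-positive cells were counted to give total EA- or VCA-positive cells per culture.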

Assay [3] concerns measles. The assay is described as follows: Measles virus inhibition of viral CPE in BSC-1 cells. Format: cell-based. The settings on record: for EC50: Table II footnote g, read-out: Others EC50, against measles.
The subject of assay [4] is HIV-1. The assay is described as follows: microbe, parasite or virus in culture. The settings on record: Human immunodeficiency virus 1, CEM-SS.

One may read the EC50 as the concentration that produces a half-maximal response. For `CCCc1cc(=O)oc2c3c(c4c(c12)OC(C)(C)C=C4)OC(C)C(C)C3=O` (racemic) [(±)-7a], in assay [1], the “VZV EC50” value stood at 13.7 µg/mL. In addition, in assay [2] (Table II), the “EBV EC50” value was over 50 µg/mL. In addition, in assay [3], the EC50 came out at 13700 nM.

On to `CCCc1cc(=O)oc2c3c(c4c(c12)OC(C)(C)C=C4)O[C@H](C)[C@@H](C)C3=O` [(+)-7, 10(R),11(R)-trans-Dihydro6,6,10,11-tetramethyl-4-propyl-2H,6H,12H-benzo [1,2-b:3,4-b′:5,6-b″]tripyran-2,12-dione], for which the half-maximal effective concentration (EC50) in assay [1] (Human alphaherpesvirus 3, Fibroblast) was 55.9 µg/mL (≈ 152 µM); in assay [2] (human gammaherpesvirus 4, Table II) it was 0.94 µg/mL (≈ 2.55 µM); in assay [4], 680 nM; in assay [3] (Measles morbillivirus, BSC-1), 3000 nM. For the same compound, in assay [2] (text summary of Table II), the “potency against EBV” value was “very potent”. Also, in assay [3] (text summary of Table II), the potency against measles entry is “potent”.

The values are drawn from patent US20020013478A1, “Calanolide analogues and methods of their use” (Sarawak Medichem Pharmaceuticals,Inc., priority 1994, published 2002).
